Source: ChEMBL document CHEMBL1201862, “PubChem BioAssay data set” (2004)
The source made the active and inactive calls.

Experiments:
Protein RecA = target: T1, Protein RecA (Mycobacterium tuberculosis, UniProt P9WHJ3); test: Fluorescence Cell-Free Homogeneous Dose Retest to Identify Inhibitors of RecA-Intein Splicing Activity. [Related pubchem assays (depositor defined):AID2097, AID2223, AID489010, AID492950]; format: functional
T1 sequence (P9WHJ3 whole entry): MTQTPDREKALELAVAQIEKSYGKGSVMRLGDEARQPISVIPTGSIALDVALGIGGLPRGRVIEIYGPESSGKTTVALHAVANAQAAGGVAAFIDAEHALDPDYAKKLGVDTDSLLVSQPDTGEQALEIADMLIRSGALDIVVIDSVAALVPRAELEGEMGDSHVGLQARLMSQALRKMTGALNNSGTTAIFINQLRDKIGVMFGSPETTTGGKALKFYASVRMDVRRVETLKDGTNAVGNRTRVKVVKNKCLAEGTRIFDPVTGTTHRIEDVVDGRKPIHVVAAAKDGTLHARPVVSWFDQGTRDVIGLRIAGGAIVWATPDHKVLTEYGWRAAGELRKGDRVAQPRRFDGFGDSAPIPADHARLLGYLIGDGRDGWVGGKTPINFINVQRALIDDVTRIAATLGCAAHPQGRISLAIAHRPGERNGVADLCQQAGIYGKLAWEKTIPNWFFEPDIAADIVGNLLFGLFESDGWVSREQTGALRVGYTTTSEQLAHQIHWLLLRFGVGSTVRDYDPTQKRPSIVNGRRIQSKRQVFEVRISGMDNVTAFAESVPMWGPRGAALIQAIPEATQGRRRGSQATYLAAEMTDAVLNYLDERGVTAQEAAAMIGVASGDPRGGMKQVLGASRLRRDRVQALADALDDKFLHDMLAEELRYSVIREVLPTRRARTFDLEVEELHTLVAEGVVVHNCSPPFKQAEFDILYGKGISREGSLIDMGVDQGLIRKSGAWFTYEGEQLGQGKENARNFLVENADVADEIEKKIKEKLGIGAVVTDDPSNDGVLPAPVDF

[1] = target: T2, Replicative DNA helicase DnaB (Mycobacterium tuberculosis, UniProt P9WMR3); test: DnaB intein splicing inhibitors, dose response, biochemical, cell-free fluorescence (AID 449749); format: functional
T2 sequence (P9WMR3 whole entry): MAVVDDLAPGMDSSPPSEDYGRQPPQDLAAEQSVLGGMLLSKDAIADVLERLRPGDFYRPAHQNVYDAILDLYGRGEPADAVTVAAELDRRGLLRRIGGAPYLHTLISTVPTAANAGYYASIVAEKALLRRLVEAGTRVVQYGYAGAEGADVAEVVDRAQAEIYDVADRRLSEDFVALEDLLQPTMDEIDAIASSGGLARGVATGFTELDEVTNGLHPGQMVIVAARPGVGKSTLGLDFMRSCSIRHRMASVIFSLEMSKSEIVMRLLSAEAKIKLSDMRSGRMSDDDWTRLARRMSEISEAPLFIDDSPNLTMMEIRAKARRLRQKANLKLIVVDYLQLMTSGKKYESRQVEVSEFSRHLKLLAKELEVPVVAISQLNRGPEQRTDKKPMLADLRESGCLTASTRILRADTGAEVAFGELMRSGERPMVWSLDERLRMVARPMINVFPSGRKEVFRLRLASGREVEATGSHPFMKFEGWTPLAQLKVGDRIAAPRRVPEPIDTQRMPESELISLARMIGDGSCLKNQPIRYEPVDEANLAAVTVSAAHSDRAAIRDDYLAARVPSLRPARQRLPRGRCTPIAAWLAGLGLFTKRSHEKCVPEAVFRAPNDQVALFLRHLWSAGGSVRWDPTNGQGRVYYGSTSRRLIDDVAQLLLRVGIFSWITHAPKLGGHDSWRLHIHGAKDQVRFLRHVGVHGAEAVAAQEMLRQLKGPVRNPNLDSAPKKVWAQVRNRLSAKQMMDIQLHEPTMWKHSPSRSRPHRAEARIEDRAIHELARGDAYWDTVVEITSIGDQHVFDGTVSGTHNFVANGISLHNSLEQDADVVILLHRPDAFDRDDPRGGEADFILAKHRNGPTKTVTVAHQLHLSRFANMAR

[2] = A cytotoxicity screen of small molecule inhibitors of the PhoP region in Salmonella typhi identified in the primary screen. [Related pubchem assays: 1850, 1864, 1985 ]; format: functional
[3] = target: T3, DNA repair protein RAD52 homolog (Homo sapiens, UniProt P43351); format: functional, biochemical
T3 sequence (P43351 whole entry): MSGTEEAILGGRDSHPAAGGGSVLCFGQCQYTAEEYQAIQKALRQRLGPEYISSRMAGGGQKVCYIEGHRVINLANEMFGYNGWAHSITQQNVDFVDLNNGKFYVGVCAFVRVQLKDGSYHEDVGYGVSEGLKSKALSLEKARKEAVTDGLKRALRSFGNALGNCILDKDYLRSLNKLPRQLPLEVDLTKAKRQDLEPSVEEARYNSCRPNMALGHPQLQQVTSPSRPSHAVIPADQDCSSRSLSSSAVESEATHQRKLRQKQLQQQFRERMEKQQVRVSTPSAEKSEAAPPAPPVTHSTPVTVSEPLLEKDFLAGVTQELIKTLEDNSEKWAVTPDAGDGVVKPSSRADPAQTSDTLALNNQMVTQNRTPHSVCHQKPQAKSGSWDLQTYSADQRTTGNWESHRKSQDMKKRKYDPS

[4] = NIH3T3 cell viability loss – ATP luminescence, mouse fibroblasts, counter-screen, dose response (AID 2010); format: functional, cell-based;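 also: cells exposed to compound for about 90 hours before reading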
[5] = Trypanosoma cruzi growth suppression in host cells – NIH3T3 host cells, beta-gal luminescence, confirmation (AID 2044); format: functional, cell-based;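 also: intracellular parasites grown in NIH/3T3 mouse fibroblasts as host cells; luminescent beta-galactosidase reporter signal from transgenic T. cruzi replicating inside host cells; inhibitors lower the luminescence signal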
[6] = target: Glyceraldehyde-3-phosphate dehydrogenase (Homo sapiens, UniProt P04406)
Glyceraldehyde-3-phosphate dehydrogenase, sequence (P04406 whole entry): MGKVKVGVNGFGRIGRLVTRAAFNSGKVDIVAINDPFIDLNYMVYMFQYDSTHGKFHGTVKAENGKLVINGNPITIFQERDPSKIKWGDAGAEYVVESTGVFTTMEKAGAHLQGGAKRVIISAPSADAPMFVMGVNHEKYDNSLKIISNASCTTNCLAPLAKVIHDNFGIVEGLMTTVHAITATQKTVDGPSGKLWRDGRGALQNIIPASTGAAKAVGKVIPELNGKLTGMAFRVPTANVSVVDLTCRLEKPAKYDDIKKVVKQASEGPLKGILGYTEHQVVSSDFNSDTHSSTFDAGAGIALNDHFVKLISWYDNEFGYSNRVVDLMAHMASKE

Cytochrome P450 2C9 = Cytochrome P450 2C9 (Homo sapiens, UniProt P11712)
Cytochrome P450 2C9, sequence (P11712 whole entry): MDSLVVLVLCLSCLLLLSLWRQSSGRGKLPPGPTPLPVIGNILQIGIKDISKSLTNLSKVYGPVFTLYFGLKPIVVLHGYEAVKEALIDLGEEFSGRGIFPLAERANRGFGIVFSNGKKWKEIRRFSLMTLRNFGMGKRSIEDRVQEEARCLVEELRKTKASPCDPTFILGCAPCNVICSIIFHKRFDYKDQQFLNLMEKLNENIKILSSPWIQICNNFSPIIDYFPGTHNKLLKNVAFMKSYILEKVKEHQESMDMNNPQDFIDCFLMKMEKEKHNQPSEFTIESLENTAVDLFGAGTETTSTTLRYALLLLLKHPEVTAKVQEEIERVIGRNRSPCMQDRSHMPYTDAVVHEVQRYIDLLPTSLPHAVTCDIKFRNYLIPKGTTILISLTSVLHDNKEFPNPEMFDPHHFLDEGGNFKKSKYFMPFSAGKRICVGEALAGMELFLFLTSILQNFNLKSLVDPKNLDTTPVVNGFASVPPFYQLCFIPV

[7] = target: FAD-linked sulfhydryl oxidase ALR (Homo sapiens, UniProt P55789); test: ALR-catalysed DTT oxidation blockers – biochemical, H2O2 detection, luminescence, cherry-pick, dose response (AID 493248)
FAD-linked sulfhydryl oxidase ALR, sequence (P55789 whole entry): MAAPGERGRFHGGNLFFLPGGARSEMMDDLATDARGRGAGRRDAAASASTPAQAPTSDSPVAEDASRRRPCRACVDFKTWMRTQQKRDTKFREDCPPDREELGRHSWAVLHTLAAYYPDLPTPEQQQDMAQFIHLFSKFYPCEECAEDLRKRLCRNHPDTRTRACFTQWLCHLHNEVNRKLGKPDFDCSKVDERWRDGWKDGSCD

CCCCCCOC(=O)c1ccccc1NC(=O)/C=C/C(=O)O
EC50 (Protein RecA): 3.41 µM (active)
AC50 [1]: > 380 µM (inactive)

Fc1ccc(CCNCc2ccccc2Cl)cc1
EC50 [2]: > 50 µM (active)

CN1CCN(CCCNC(=O)c2ccc(/C=C3/Sc4ccccc4N(Cc4cccc(Cl)c4)C3=O)cc2)CC1
AC50 [3]: 14 µM (active)
EC50 [4]: 5.71 µM (active)
EC50 [5]: 0.11 µM (active)

COc1ccc(NC(=O)C(Cc2ccccc2)n2cccc2)cc1 (configuration not stated)
EC50 [2]: > 50 µM (active)

COc1cccc(N2CCN(C3=C(Cl)C(=O)N(c4cccc(C)c4)C3=O)CC2)c1
IC50 [6]: > 50 µM (inconclusive)

CC1=NNC(=O)C1C(c1ccc(Cl)cc1)C(C#N)C#N (configuration not stated)
EC50 (Protein RecA): 3.26 µM (active)
AC50 [1]: 7.84 µM (active)

O=C1C(Cl)=C(N2CCN(C/C=C/c3ccccc3)CC2)C(=O)N1c1cccc(C(F)(F)F)c1
IC50 [6]: > 50 µM (inconclusive)

Cc1ccc(Cn2c(=N)c(C(=O)NCCN3CCOCC3)cc3c(=O)n4ccccc4nc32)cc1
EC50 [2]: > 50 µM (active)

Cc1ccc(Sc2c([N+](=O)[O-])ncn2C)cc1
EC50 (Protein RecA): 34.6 µM (active)
AC50 (Cytochrome P450 2C9): 1.58 µM (inconclusive)
AC50 [1]: 112 µM (active)
AC50 [7]: 0.27 µM (active)

CN1CCN(CC(O)COc2ccc(C34CC5CC(CC(C5)C3)C4)cc2)CC1 (configuration not stated)
AC50 [3]: 10.5 µM (active)
